According to ChEMBL document CHEMBL6121054, “Discovery of Metabolic Reprogramming 2-Quinolones as Effective Antimicrobials for MRSA-Infected Wound Therapy” (J Med Chem, 2025):
Values after ≈ are worked out from the molar mass of the structure shown. Active and inactive are the calls of the source. The calls are words filed in the database; no cut-off is given here.

What was measured:
Staphylococcus aureus [1] = experiment: Bactericidal activity against methicillin-resistant Staphylococcus aureus MRSA 2; format: functional
Staphylococcus aureus [2] = experiment: Bacteriostatic activity against methicillin-resistant Staphylococcus aureus USA300 at 1 to 2 times MIC measured upto 24 hrs by time-kill assay; format: functional, organism-based
A549 [3] = experiment: Reversal of Staphylococcus aureus USA300-induced cytotoxicity in human A549 cells infected with bacteria assessed as reduction in number of dead cells at 4 to 8 ug/ml preincubated with compound followed by […] infection for 5 hrs by Calcein AM/Ethidium homodimer-1 dye based analysis; format: functional, cell-based; details: dose 4-8 µg/ml
Staphylococcus aureus [4] = experiment: Antibacterial activity against methicillin-resistant Staphylococcus aureus infected in BALB/c mouse wound model assessed as decrease in wound diameter at 20 to 80 mg/kg administered topically on days 0, 3 and 6 measured after 12 days; format: functional, organism-based; details: dose 20-80 mg/kg, route top, time 12.0 day
Escherichia coli [5] = experiment: Antibacterial activity against Escherichia coli […] incubated for 16 to 24 hrs by broth microdilution method; format: functional; details: time 16-24 hrs
Acinetobacter baumannii [6] = experiment: Antibacterial activity against Acinetobacter baumannii ATCC 17978 incubated for 16 to 24 hrs by broth microdilution method; format: functional; details: time 16-24 hrs
A549 [7] = experiment: Cytotoxicity against human A549 cells assessed as cell viability upto 8 ug/ml incubated for 6 hrs by LDH assay; format: toxicity, cell-based; details: a549, 6 h, dose < 8 µg/ml
[8] = Hemolytic activity in rabbit RBCs upto 8 ug/ml incubated for 1 hr; format: toxicity, cell-based, Oryctolagus cuniculus; details: erythrocyte, dose < 8 µg/ml
Staphylococcus aureus [9] = experiment: Antibacterial activity against methicillin-resistant Staphylococcus aureus MRSA 1 incubated for 16 to 24 hrs by broth microdilution method; format: functional; details: Staphylococcus aureus, MRSA 1, time 16-24 hrs; read-out: MIC
Klebsiella pneumoniae [10] = experiment: Antibacterial activity against Klebsiella pneumoniae ATCC 43816 incubated for 16 to 24 hrs by broth microdilution method; format: functional; details: time 16-24 hrs
Staphylococcus aureus [11] = experiment: Induction of cell permeability in Staphylococcus aureus USA300 upto 0.13 uM by PI dye based analysis; format: functional, organism-based
Staphylococcus aureus [12] = experiment: Effect on biosynthesis of co-factors in Staphylococcus aureus USA300 at 4 times MIC by KEGG analysis; format: functional, organism-based
DNA gyrase = DNA gyrase (Staphylococcus aureus, UniProt P0A0K8+P20831); experiment: Inhibition of Staphylococcus aureus gyrase; format: protein-complex assay
Staphylococcus aureus [13] = experiment: Antibacterial activity against Staphylococcus aureus USA300 at 2 times MIC measured upto 24 hrs in presence of alpha-tocopherol; format: functional, organism-based
Staphylococcus aureus [14] = experiment: Inhibition of biofilm formation in Staphylococcus aureus USA300 upto 0.13 ug/ml incubated for 24 hrs by crystal violet staining based analysis; format: functional, organism-based; details: dose <= 0.13 µg/ml
Streptococcus suis = experiment: Bactericidal activity against Streptococcus suis ZY05719 measured upto 24 hrs by time-kill assay; format: functional, organism-based
Staphylococcus aureus [15] = experiment: Bactericidal activity against Staphylococcus aureus NCTC 8325-4; format: functional
Listeria monocytogenes [16] = experiment: Antibacterial activity against Listeria monocytogenes EGD incubated for 16 to 24 hrs by broth microdilution method; format: functional; details: time 16-24 hrs
Staphylococcus aureus [17] = experiment: Bactericidal activity against Staphylococcus aureus ATCC 25923; format: functional
Staphylococcus aureus [18] = experiment: Disruption of cell membrane integrity in Staphylococcus aureus USA300 assessed as protein leakage at 0.25 ug/ml incubated for 6 hrs MIC by SDS-PAGE analysis; format: functional, organism-based; details: dose 0.25 µg/ml
Staphylococcus aureus [19] = experiment: Bactericidal activity against methicillin-resistant Staphylococcus aureus USA300 at 4 times MIC measured for 12 to 24 hrs by time-kill assay; format: functional, organism-based; details: time 12-24 hrs
Staphylococcus aureus [20] = experiment: Antibacterial activity against methicillin-resistant Staphylococcus aureus infected in BALB/c mouse wound model assessed as decrease in wound area at 20 to 80 mg/kg administered topically on days 0, 3 and 6 measured after 12 days; format: functional, organism-based; details: dose 20-80 mg/kg, route top, time 12.0 day
Staphylococcus aureus [21] = experiment: Antibacterial activity against Staphylococcus aureus USA300 assessed as acceleration of TCA cycle measured by decrease in NAD+/NADH ratio upto 0.25 ug/ml incubated for 5 hrs; format: functional, organism-based; details: dose <= 0.25 µg/ml
Escherichia coli [22] = experiment: Antibacterial activity against Escherichia coli ATCC 25922 incubated for 16 to 24 hrs by broth microdilution method; format: functional; details: time 16-24 hrs
Staphylococcus aureus [23] = experiment: Antibacterial activity against methicillin-resistant Staphylococcus aureus infected in BALB/c mouse wound model assessed as reduction in bacterial load at 20 to 80 mg/kg administered topically on days 0, 3 and 6 measured after 12 days; format: functional, organism-based; details: dose 20-80 mg/kg, route top, time 12.0 day
Klebsiella pneumoniae [24] = experiment: Bactericidal activity against Klebsiella pneumoniae ATCC 43816; format: functional
Escherichia coli [25] = experiment: Bactericidal activity against Escherichia coli ATCC ZJ487; format: functional
Staphylococcus aureus [26] = experiment: Bactericidal activity against Staphylococcus aureus ATCC 25904; format: functional
Escherichia coli [27] = experiment: Bactericidal activity against Escherichia coli ATCC 25922; format: functional
Staphylococcus aureus [28] = experiment: Bactericidal activity against Staphylococcus aureus ATCC 29213; format: functional
Staphylococcus aureus [29] = experiment: Antibacterial activity against methicillin-resistant Staphylococcus aureus infected in BALB/c mouse wound model assessed as neovascularization in skin tissue at 20 to 80 mg/kg administered topically on days 0, 3 and 6 measured for 6 to 12 days by H and E staining based analysis; format: functional, organism-based; details: dose 20-80 mg/kg, route top, time 6-12 day
Staphylococcus aureus [30] = experiment: Antibacterial activity against methicillin-resistant Staphylococcus aureus infected in BALB/c mouse wound model assessed as reversal of inflammation-induced IL-1beta level in wound at 20 to 80 mg/kg administered topically on days 0, 3 and 6 measured after 12 days by ELISA; format: functional, organism-based; details: dose 20-80 mg/kg, route top, time 12.0 day
Acinetobacter baumannii [31] = experiment: Antibacterial activity against Acinetobacter baumannii ATCC 19606 incubated for 16 to 24 hrs by broth microdilution method; format: functional; details: time 16-24 hrs
Staphylococcus aureus [32] = experiment: Antibacterial activity against Staphylococcus aureus USA300 assessed as acceleration of TCA cycle measured by increase in gltA mRNA level upto 0.25 ug/ml incubated for 6 hrs by RT-PCR analysis; format: functional, organism-based; details: dose <= 0.25 µg/ml
Staphylococcus aureus [33] = experiment: Upregulation of ATP level in Staphylococcus aureus USA300 upto 0.25 ug/ml incubated for 5 hrs; format: functional, organism-based; details: dose <= 0.25 µg/ml
Staphylococcus aureus [34] = experiment: Induction of H2O2 accumulation in Staphylococcus aureus USA300 upto 0.25 ug/ml incubated for 5 hrs; format: functional, organism-based; details: dose <= 0.25 µg/ml
A549 [35] = experiment: Reversal of Staphylococcus aureus USA300-induced cytotoxicity in human A549 cells infected with bacteria assessed as cell viability upto 8 ug/ml preincubated with compound followed by […] infection for 5 hrs by LDH assay; format: functional, cell-based; details: dose <= 8.0 µg/ml
Staphylococcus aureus [36] = experiment: Effect on lysine degradation in Staphylococcus aureus USA300 at 4 times MIC by KEGG analysis; format: functional, organism-based
Listeria monocytogenes [37] = experiment: Antibacterial activity against Listeria monocytogenes ATCC 19115 incubated for 16 to 24 hrs by broth microdilution method; format: functional; details: time 16-24 hrs
Klebsiella pneumoniae [38] = experiment: Bactericidal activity against Klebsiella pneumoniae E8.31; format: functional
Staphylococcus aureus [39] = experiment: Inhibition of biofilm formation in Staphylococcus aureus USA300 assessed as decrease in green fluorescence at 0.06 to 0.13 ug/ml incubated for 24 hrs by SYTO 9 dye based CLSM analysis; format: functional, organism-based; details: dose 0.06-0.13 µg/ml
Staphylococcus aureus [40] = experiment: Antibacterial activity against methicillin-resistant Staphylococcus aureus infected in BALB/c mouse wound model assessed as increase in thickness of granulation tissue at 20 to 80 mg/kg administered topically on days 0, 3 and 6 measured for 6 to 12 days by H and E staining based analysis; format: functional, organism-based; details: dose 20-80 mg/kg, route top, time 6-12 day

DNA gyrase, sequence (P0A0K8 whole entry): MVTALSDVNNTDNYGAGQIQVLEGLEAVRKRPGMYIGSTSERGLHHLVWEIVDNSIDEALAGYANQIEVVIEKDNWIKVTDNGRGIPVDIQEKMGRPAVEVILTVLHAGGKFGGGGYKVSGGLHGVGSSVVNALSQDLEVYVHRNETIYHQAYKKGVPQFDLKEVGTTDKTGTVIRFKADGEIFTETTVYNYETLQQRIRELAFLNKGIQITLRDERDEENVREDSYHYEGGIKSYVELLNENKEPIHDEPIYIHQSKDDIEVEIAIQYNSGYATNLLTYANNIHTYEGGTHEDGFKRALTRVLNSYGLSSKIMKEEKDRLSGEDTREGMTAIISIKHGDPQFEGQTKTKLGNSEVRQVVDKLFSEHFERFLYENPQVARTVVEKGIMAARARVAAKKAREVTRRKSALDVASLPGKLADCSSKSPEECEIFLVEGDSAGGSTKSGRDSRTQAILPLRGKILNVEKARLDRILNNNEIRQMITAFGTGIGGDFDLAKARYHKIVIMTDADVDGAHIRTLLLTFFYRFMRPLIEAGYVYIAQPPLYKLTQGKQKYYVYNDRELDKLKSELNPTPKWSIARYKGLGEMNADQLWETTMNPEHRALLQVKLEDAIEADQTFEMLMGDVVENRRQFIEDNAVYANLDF
DNA gyrase, sequence (P20831 whole entry): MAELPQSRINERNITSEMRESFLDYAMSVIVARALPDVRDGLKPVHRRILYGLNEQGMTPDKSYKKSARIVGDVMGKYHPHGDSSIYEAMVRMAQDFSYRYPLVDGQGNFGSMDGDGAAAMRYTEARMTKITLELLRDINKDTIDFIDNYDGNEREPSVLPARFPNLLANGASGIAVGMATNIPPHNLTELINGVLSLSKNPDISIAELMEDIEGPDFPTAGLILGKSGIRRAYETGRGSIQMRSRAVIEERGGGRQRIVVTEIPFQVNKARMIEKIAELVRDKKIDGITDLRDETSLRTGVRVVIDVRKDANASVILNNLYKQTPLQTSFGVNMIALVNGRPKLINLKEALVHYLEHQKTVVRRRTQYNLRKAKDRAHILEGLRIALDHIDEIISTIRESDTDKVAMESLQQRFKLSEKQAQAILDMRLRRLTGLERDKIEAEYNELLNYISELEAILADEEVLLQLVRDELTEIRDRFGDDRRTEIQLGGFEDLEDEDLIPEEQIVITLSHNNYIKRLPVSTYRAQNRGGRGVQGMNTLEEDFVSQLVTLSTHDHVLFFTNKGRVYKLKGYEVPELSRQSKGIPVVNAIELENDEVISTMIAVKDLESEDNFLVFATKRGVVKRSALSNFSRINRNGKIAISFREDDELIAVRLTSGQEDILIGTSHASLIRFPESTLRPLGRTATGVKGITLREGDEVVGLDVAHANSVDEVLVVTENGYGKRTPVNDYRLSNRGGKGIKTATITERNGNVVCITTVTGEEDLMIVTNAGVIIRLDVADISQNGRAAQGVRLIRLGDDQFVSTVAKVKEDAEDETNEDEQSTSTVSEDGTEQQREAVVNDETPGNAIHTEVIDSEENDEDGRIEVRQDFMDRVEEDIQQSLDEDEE

CCn1c(=O)c(C(=O)Nc2nnc(-c3ccc(C)cn3)s2)c(O)c2ccccc21
MBC (Staphylococcus aureus [1]): 0.05 µg/mL (≈ 0.123 µM)
Activity (Staphylococcus aureus [2]): Active
Activity (A549 [3]): Active
Activity (Staphylococcus aureus [4]): Active
MIC (Escherichia coli [5]): > 512 µg/mL
MIC (Acinetobacter baumannii [6]): > 512 µg/mL
Activity (A549 [7]): Non-toxic
Activity [8]: Non-toxic
MIC (Staphylococcus aureus [9]): 0.02 µg/mL (≈ 0.0491 µM)
MIC (Klebsiella pneumoniae [10]): > 512 µg/mL
Activity (Staphylococcus aureus [11]): Active
Activity (Staphylococcus aureus [12]): Active
IC50 (DNA gyrase): 1190 nM
Activity (Staphylococcus aureus [13]): inactive
inhibition (Staphylococcus aureus [14]): Active
Activity (Streptococcus suis): Active; Bacteria Were Suppressed Or Completely Eliminated
MBC (Staphylococcus aureus [15]): 0.09 µg/mL (≈ 0.221 µM)
MIC (Listeria monocytogenes [16]): 0.02 µg/mL (≈ 0.0491 µM)
MBC (Staphylococcus aureus [17]): 0.1 µg/mL (≈ 0.245 µM)
Activity (Staphylococcus aureus [18]): Active
Activity (Staphylococcus aureus [19]): Active
Activity (Staphylococcus aureus [20]): Active
Activity (Staphylococcus aureus [21]): Active
MIC (Escherichia coli [22]): > 512 µg/mL
Activity (Staphylococcus aureus [23]): Active
MBC (Klebsiella pneumoniae [24]): > 512 µg/mL
MBC (Escherichia coli [25]): > 512 µg/mL
MBC (Staphylococcus aureus [26]): 0.17 µg/mL (≈ 0.417 µM)
MBC (Escherichia coli [27]): > 512 µg/mL
MBC (Staphylococcus aureus [28]): 0.15 µg/mL (≈ 0.368 µM)
Activity (Staphylococcus aureus [29]): Active
Activity (Staphylococcus aureus [30]): Active
MIC (Acinetobacter baumannii [31]): > 512 µg/mL
Activity (Staphylococcus aureus [32]): Active
Activity (Staphylococcus aureus [33]): Active
Activity (Staphylococcus aureus [34]): Active
Activity (A549 [35]): Active
Activity (Staphylococcus aureus [36]): Active
MIC (Listeria monocytogenes [37]): 0.02 µg/mL (≈ 0.0491 µM)
MBC (Klebsiella pneumoniae [38]): > 512 µg/mL
inhibition (Staphylococcus aureus [39]): Active
Activity (Staphylococcus aureus [40]): Active
